According to PMC12691669, “Inhibitors of the 20S proteasome β5 subunit as potent and selective agents against Trichomonas vaginalis” (Antimicrobial Agents and Chemotherapy, 2025):
“Also recorded” adds a separate entry of the source. Like-named read-outs stand apart in the source and are kept apart here.

Key:
[1] = biological target: T. vaginalis Tv20S proteasome β1 subunit (Trichomonas vaginalis, UniProt A2E7Z2); assay: In vitro proteasome assay, Ac-RYFD-amc substrate; assay type: biochemical; conditions: recombinant Tv20S, mean ± SD of three experiments
Sequence of T. vaginalis Tv20S proteasome β1 subunit (A2E7Z2 entry or part of it): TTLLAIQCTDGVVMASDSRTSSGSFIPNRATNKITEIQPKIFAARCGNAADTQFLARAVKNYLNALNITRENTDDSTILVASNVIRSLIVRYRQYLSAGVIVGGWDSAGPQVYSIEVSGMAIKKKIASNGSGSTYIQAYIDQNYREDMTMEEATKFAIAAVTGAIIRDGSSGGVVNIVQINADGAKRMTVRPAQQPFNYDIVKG
Experimental: (§1) The T. vaginalis proteasome was expressed in recombinant form as previously described ([27]). Briefly, Spodoptera frugiperda cells were co-infected with three baculovirus vectors carrying the T. vaginalis genes for the 7 α-subunits, 7 β-subunits, and the Ump-1 chaperone, respectively. The resulting proteasome complex was purified from cell lysates via streptavidin column and size exclusion chromatography and stored at −80°C. Purified human c20S proteasome and recombinant human proteasome activator PA28α ([21]) were obtained from Bio-Techne and stored at −80°C. Dilutions of the test agents were transferred to 384-well plates (Greiner Bio-One) in triplicate wells using an Echo 650 Acoustic Liquid Handler (Beckman Coulter). Six replicate plates were prepared for each compound for testing with three T. vaginalis-optimized substrates and three human-optimized substrates. After dispensing, plates were sealed and stored at −20°C. The following fluorescent substrates and final substrate concentrations were used to assay subunit activities of the T. vaginalis proteasome (Tv20S) ([28]) or the human constitutive proteasome (c20S) ([19], [52]): Ac-RYFD-amc (Genscript) at 100 µM for Tv20S β1 subunit, Ac-FRSR-amc (Genscript) at 20 µM for Tv20S β2 subunit, Ac-GWYL-amc (Genscript) at 20 µM for Tv20S β5 subunit, z-LLE-amc (R&D Systems) at 80 µM for c20S β1 subunit, z-VLR-amc (AdipoGen Life Sciences) at 30 µM for c20S β2 subunit, and suc-LLVY-amc (R&D Systems) at 65 µM for c20S β5 subunit. Substrates and proteasomes were diluted in an assay buffer consisting of HEPES pH 7.5 and 1 mM DTT. For the human proteasome assays, 2 nM c20S was incubated at room temperature with 200 nM PA28α for 1 h to activate the complex prior to addition to the 384-well plates containing the substrate-inhibitor mixtures. […] Both proteasomes were added to the wells at a 1 nM final assay concentration. Fluorescence was measured over 4 h at 360 nm excitation and 460 nm emission on a Biotek Synergy HTX plate reader.

[2] = test system: T. vaginalis Tv20S proteasome β2 subunit; assay: In vitro proteasome assay, Ac-FRSR-amc substrate; assay type: biochemical, Trichomonas vaginalis; conditions: recombinant Tv20S, mean ± SD of three experiments; for IC50: read-out: Tv20S proteasome inhibition of β2 subunit (IC50)
Experimental: as §1

[3] = biological target: T. vaginalis Tv20S proteasome β5 subunit (Trichomonas vaginalis, UniProt A2DD57+A2F716); assay: biochemical; assay type: biochemical
Sequence of T. vaginalis Tv20S proteasome β5 subunit (A2DD57 entry or part of it): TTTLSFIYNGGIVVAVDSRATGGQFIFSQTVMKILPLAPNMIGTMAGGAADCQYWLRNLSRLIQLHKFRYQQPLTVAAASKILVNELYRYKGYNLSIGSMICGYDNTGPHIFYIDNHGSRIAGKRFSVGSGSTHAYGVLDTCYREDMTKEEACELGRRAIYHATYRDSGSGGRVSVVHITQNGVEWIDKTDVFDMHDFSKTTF
Sequence of T. vaginalis Tv20S proteasome β5 subunit (A2F716 entry or part of it): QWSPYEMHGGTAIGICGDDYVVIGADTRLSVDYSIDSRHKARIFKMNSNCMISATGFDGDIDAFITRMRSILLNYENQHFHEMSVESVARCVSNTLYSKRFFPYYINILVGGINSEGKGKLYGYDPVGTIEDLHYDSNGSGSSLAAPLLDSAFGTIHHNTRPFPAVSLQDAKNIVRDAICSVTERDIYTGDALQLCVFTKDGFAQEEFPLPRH
Experimental: as §1

[4] = biological target: T1, Human c20S proteasome β1 subunit (Homo sapiens, UniProt P28072+Q99436); assay: In vitro proteasome assay, z-LLE-amc substrate; assay type: biochemical; conditions: purified human c20S with PA28α, mean ± SD; for IC50: read-out: Human c20S proteasome inhibition of β1 subunit (IC50)
T1 construct: purchased Bio-Techne
Experimental: as §1

[5] = biological target: T2, Human c20S proteasome β2 subunit (Homo sapiens, UniProt P49720+Q99436); assay: In vitro proteasome assay, z-VLR-amc substrate; assay type: biochemical
T2 construct: purchased Bio-Techne
Experimental: as §1

[6] = biological target: T3, Human c20S proteasome β5 subunit (Homo sapiens, UniProt P20618+P28074); assay: In vitro proteasome assay, suc-LLVY-amc substrate; assay type: biochemical; conditions: purified human c20S with PA28α, mean ± SD
T3 construct: purchased Bio-Techne
Experimental: as §1

[7] = test system: T. vaginalis strain F1623; assay: 24 h growth and survival assay (ATP luminescence, GI50); assay type: cell-based, Trichomonas vaginalis; conditions: for SI (ratio of GI50 in HeLa cells over GI50 in T. vaginalis): T. vaginalis F1623 vs human HeLa cells
Experimental: The following T. vaginalis strains were used: F1623 ([50]), G3 (ATCC PRA-98), and LA1 ([25]). […] Drug susceptibility assays were performed as described previously ([23]) with several minor modifications. Briefly, 10 mM stocks of the test compounds in DMSO were serially diluted 1:3 using an Echo 650 Acoustic Liquid Handler (Beckman Coulter). Subsequently, trophozoites (5 × 10^3/well) in TYM modified media were added to the wells in 384-well plates, and cultures were incubated for 24 h at 37°C under anaerobic conditions (AnaeroPack-Anaero System; Remel). For testing in mammalian cells, the following cell lines were used: Human cervical cancer cells HeLa (ATCC CCL-2), non-transformed mouse fibroblast cell line 3T3-L1 (ATCC CL-173), normal monkey kidney epithelial cell line Vero (ATCC CCL-81), and human B lymphoma cells Raji (ATCC CCL-86). Test compounds were serially diluted (1:3) and added to mammalian cell cultures grown in 384-well plates, and cultures were incubated for 48 h at 37°C in 5% CO2, 95% air. Growth and viability of T. vaginalis and mammalian cells were determined with an ATP assay by adding the BacTiter-Glo Microbial Cell Viability Assay reagent (Promega) directly to the wells and measuring ATP-dependent luminescence in a microplate reader. […] Experiments were repeated at least three times, and the mean and SEM of the pGI50 values were calculated.

[8] = recombinant Tv20S, mean ± SD of three experiments, read-out: Tv20S proteasome inhibition of β5 subunit (IC50)
[9] = purified human c20S with PA28α, mean ± SD, read-out: Human c20S proteasome inhibition of β2 subunit (IC50)
[10] = read-out: Human c20S proteasome inhibition of β5 subunit (IC50)
[11] = purified human c20S with PA28α, mean ± SD
[12] = relative to parental compound 4

## CCCCCC(=O)N[C@@H](CO)C(=O)N[C@@H](CCCC)C(=O)N[C@@H](Cc1ccccc1)C(=O)[C@@]1(C)CO1 [compound 19]
[1]
  Tv20S proteasome inhibition of β1 subunit (IC50): Activation
[2]
  Tv20S proteasome inhibition of β2 subunit (IC50): No inhibition
[3]; [8]
  IC50: 0.021 ± 0.00247 µM
[4]
  Human c20S proteasome inhibition of β1 subunit (IC50): No inhibition
[5]; [9]
  IC50: 2.16 µM
[6]; [10]
  IC50: 0.00816 ± 0.0018 µM

## CCCCCC(=O)N[C@H](C(=O)N[C@@H](CCS(C)(=O)=O)C(=O)N[C@@H](CC(C)C)C(=O)[C@@]1(C)CO1)C(C)C [38 (CPB), carmaphycin B, reference compound]
[1]
  Tv20S proteasome inhibition of β1 subunit (IC50): Activation
[2]
  IC50: 0.44 ± 0.101 µM
[3]
  β5 SI ratio (c20S/Tv20S): 5.25
[3]; [8]
  IC50: 0.00151 ± 0.00069 µM
[4]
  IC50: 0.895 ± 0.51 µM
[5]; [9]
  IC50: 0.0146 ± 0.00083 µM
[6]; [10]
  IC50: 0.00792 ± 0.00072 µM

## COc1ccc(CC(NC(=O)C(C)NC(=O)CN2CCOCC2)C(=O)NC(Cc2ccc(-c3ccccc3)cc2)C(=O)C2(C)CO2)cc1 (stereo not drawn) [compound 3]
[7]
  SI (ratio of GI50 in HeLa cells over GI50 in T. vaginalis): 36.3
[1]
  Tv20S proteasome inhibition of β1 subunit (IC50): Activation
[2]
  Tv20S proteasome inhibition of β2 subunit (IC50): No inhibition
[3]; [8]
  IC50: 0.012 ± 0.00194 µM
[4]
  Human c20S proteasome inhibition of β1 subunit (IC50): No inhibition
[5]
  IC50: 0.271 ± 0.0264 µM
[6]; Human c20S proteasome inhibition of β5 subunit (IC50)
  IC50: 0.0181 ± 0.00326 µM

## CCCCC(=O)N[C@@H](Cc1ccc(O)cc1)C(=O)N[C@@H](CCCC)C(=O)N[C@@H](Cc1ccccc1)C(=O)[C@@]1(C)CO1 [compound 5]
[1]
  Tv20S proteasome inhibition of β1 subunit (IC50): Activation
[2]
  Tv20S proteasome inhibition of β2 subunit (IC50): No inhibition
[3]; [8]
  IC50: 0.00243 ± 0.00039 µM
[4]
  Human c20S proteasome inhibition of β1 subunit (IC50): No inhibition
[5]; [9]
  IC50: 0.0682 ± 0.013 µM
[6]; [10]
  IC50: 0.00106 ± 8e-05 µM

## CCCCCC(=O)N[C@H](CCC(=O)OC(C)(C)C)CC(=O)N[C@@H](CCCC)C(=O)N[C@@H](Cc1ccccc1)C(=O)[C@@]1(C)CO1 [compound 94]
[7]; F1623
  growth inhibitory activity against T. vaginalis (in words): lacked activity and selectivity
[7]
  SI (ratio of GI50 in HeLa cells over GI50 in T. vaginalis): 3.16

## CCCCCC(=O)N[C@H](CC(=O)N[C@@H](CCCC)C(=O)N[C@@H](Cc1ccc(F)cc1F)C(=O)[C@@]1(C)CO1)CC(=O)OC(C)(C)C [compound 75]
[1]
  Tv20S proteasome inhibition of β1 subunit (IC50): Activation
[2]
  Tv20S proteasome inhibition of β2 subunit (IC50): No inhibition
[3]; [8]
  IC50: 0.172 ± 0.0917 µM
[4]
  Human c20S proteasome inhibition of β1 subunit (IC50): No inhibition
[5]; [11]
  Human c20S proteasome inhibition of β2 subunit (IC50): No inhibition
[6]
  Human c20S proteasome inhibition of β5 subunit (IC50): no measurable c20S β5 inhibitory activity; also recorded: No inhibition

## CC(C)CC(NC(=O)C(CC12CC3CC(CC(C3)C1)C2)NC(=O)c1cnccn1)B(O)O (stereo not drawn) [compound 32]
[7]
  SI (ratio of GI50 in HeLa cells over GI50 in T. vaginalis): 1.02

## COc1ccc(C[C@H](NC(=O)[C@H](C)NC(=O)CN2CCOCC2)C(=O)N[C@@H](CC2CCCCC2)C(=O)[C@@]2(C)CO2)cc1 [compound 156]
[7]
  SI (ratio of GI50 in HeLa cells over GI50 in T. vaginalis): 0.83

## COc1ccc(C[C@H](NC(=O)[C@H](C)NC(=O)CN2CCOCC2)C(=O)N[C@@H](CC2CCC(c3ccccc3)CC2)C(=O)[C@@]2(C)CO2)cc1 (stereo partly drawn) [compound 201]
[7]
  SI (ratio of GI50 in HeLa cells over GI50 in T. vaginalis): < 0.72

## CCCC[C@H](NC(=O)[C@H](CC(=O)N1CCCC1)NC(=O)[C@H](Cc1ccc(OC)cc1)N1CCCC1=O)C(=O)N[C@@H](Cc1ccc(F)cc1F)C(=O)[C@@]1(C)CO1 [compound 45]
[1]
  Tv20S proteasome inhibition of β1 subunit (IC50): Activation
[2]
  Tv20S proteasome inhibition of β2 subunit (IC50): No inhibition
[3]; [8]
  IC50: 0.0826 ± 0.0321 µM
[4]
  Human c20S proteasome inhibition of β1 subunit (IC50): No inhibition
[5]; [11]
  Human c20S proteasome inhibition of β2 subunit (IC50): No inhibition
[6]; [10]
  IC50: 1.01 µM

## CSc1ccc(CC(=O)NC(C(=O)NC(Cc2c(F)c(F)c(F)c(F)c2F)C(=O)N[C@@H](CC(C)C)C(=O)[C@@]2(C)CO2)C(C)C)cc1 (stereo partly drawn) [compound 50]
[1]
  Tv20S proteasome inhibition of β1 subunit (IC50): Activation
[2]
  Tv20S proteasome inhibition of β2 subunit (IC50): No inhibition
[3]; [8]
  IC50: 0.00925 ± 0.00181 µM
[4]
  Human c20S proteasome inhibition of β1 subunit (IC50): No inhibition
[5]; [9]
  IC50: 0.0647 ± 0.00819 µM
[6]; [10]
  IC50: 0.0138 ± 0.00421 µM

## COc1ccc(C[C@H](NC(=O)[C@H](C)NC(=O)C2=C(C)c3ccccc3C2)C(=O)N[C@@H](Cc2ccc(-c3ccccc3)cc2)C(=O)[C@]2(C)CO2)cc1 [compound 60]
[7]
  SI (ratio of GI50 in HeLa cells over GI50 in T. vaginalis): 8.13

## COc1ccc(C[C@H](NC(=O)[C@H](C)NC(=O)CN2CCOCC2)C(=O)N[C@@H](CC2CCC(C3CCCCC3)CC2)C(=O)[C@@]2(C)CO2)cc1 (stereo partly drawn) [compound 197]
[7]
  SI (ratio of GI50 in HeLa cells over GI50 in T. vaginalis): < 0.71

## CCCCC(=O)N[C@H](Cc1c[nH]c2ccccc12)C(=O)N[C@@H](Cc1c[nH]c2ccccc12)C(=O)N[C@@H](Cc1ccccc1)C(=O)[C@]1(C)CO1 [compound 91]
[1]
  Tv20S proteasome inhibition of β1 subunit (IC50): Activation
[2]
  Tv20S proteasome inhibition of β2 subunit (IC50): No inhibition
[3]; [8]
  IC50: 0.00252 ± 0.00105 µM
[4]
  Human c20S proteasome inhibition of β1 subunit (IC50): No inhibition
[6]; [10]
  IC50: 0.00881 ± 0.00069 µM

## C[C@@]12OC(=O)[C@]1([C@@H](O)[C@@H]1C=CCCC1)NC(=O)[C@@H]2CCCl [18 (MZB), marizomib, reference compound]
[2]
  Tv20S proteasome inhibition of β2 subunit (IC50): No inhibition
[3]; Tv20S proteasome inhibition of β5 subunit (IC50), recombinant Tv20S, mean ± SD of three experiments
  IC50: 0.00088 ± 0.00011 µM
[4]
  IC50: 0.0665 ± 0.0117 µM
[5]; [9]
  IC50: 0.0467 ± 0.0112 µM

## CC(C)C[C@H](NC(=O)[C@H](Cc1ccccc1)NC(=O)c1cnccn1)B(O)O [43 (BTZ), bortezomib, reference compound]
[2]
  IC50: 0.0308 ± 0.0199 µM
[3]; read-out: Tv20S proteasome inhibition of β5 subunit (IC50)
  IC50: 0.0216 ± 0.00169 µM

## COc1ccc(C[C@H](NC(=O)[C@H](C)NC(=O)CN2CCOCC2)C(=O)N[C@@H](Cc2ccc3ccccc3c2)C(=O)[C@@]2(C)CO2)cc1 [compound 35]
[7]
  SI (ratio of GI50 in HeLa cells over GI50 in T. vaginalis): 3.47

## COc1ccc(C[C@H](NC(=O)[C@H](C)NC(=O)C2=C(C)c3ccccc3C2)C(=O)N[C@@H](Cc2ccccc2)C(=O)[C@@H]2CO2)cc1 [compound 66]
[7]
  SI (ratio of GI50 in HeLa cells over GI50 in T. vaginalis): 2.69
[7]; [12]
  loss in selectivity: ~ 10 fold
  reduction in activity against T. vaginalis: ~ 50 fold
